Test results reported in patent US20130095059A1, “INHALED NO DONOR KMUPS DERIVATIVE PREVENTING ALLERGIC PULMONARY VASCULAR AND BRONCHIAL INFLAMMATION VIA SUPPRESSED CYTOKINES, INOS AND INFLAMMATORY CELL COUNTS IN ASTHMA MODEL” (priority 2007, published 2013).

How the values were obtained:
IL-5 = experiment: Ovalbumine model, plasma IL-5 (ELISA); format: in vivo, mice; details: mice sensitized and challenged by ovalbumine
Procedure: (§1) In this long-term experiment, 6-8 week old BALB/c female mice were sensitized on days 1 and 8 by intra-peritoneal injection (i.p.) of ovalbumine (10 μg) (Sigma-Aldrich, Schnelldorf, Germany) adsorbed to 2 mg aluminum hydroxide (AlumInject; Perbio, Erembodegem, Belgium). Mice were divided into three groups. In Group 1, a control group was only exposed to saline nebulization by aerosol. The other 2 groups were subjected to ovalbumine (1%) nebulization. Before each challenge with ovalbumine, mice were either exposed to saline nebulization (Group 2) or KMUP-1 nebulization (5 mM) for 30 min by aerosol (Group 3).

MMP-9 = experiment: Short term nebulization, MMP-9 expression in lung tissues; format: in vivo, BALB/c mice; details: nebulization 1.0˜2.5 mM, 30 mins, without ovalbumine sensitization
Procedure: […] […] […] Three different experiments were performed on cohorts of 7˜14 mice per experimental condition.
The lung tissues were homogenized, washed with PBS and incubated in lysis buffer in addition to a protease inhibitor cocktail (Sigma, St. Louis, Mo.) to obtain extracts of lung proteins. A Western blot analysis was performed as described previously (Wu B N, et al., 2006). The samples were loaded to 10% SDS-PAGE gels and were separated at 120 V for 90 min. The blots were incubated with anti-eNOS antibody diluted at a ratio of 1:500, anti-sGCα1 antibody diluted at a ratio of 1:2000, anti-PKG antibody diluted at a ratio of 1:500, anti-VCAM-1 antibody diluted at a ratio of 1:500, anti-ICAM-1 antibody diluted at a ratio of 1:500, and anti-MMP-9 antibody diluted at a ratio of 1:600 overnight at 4° C. The membranes were stripped and re-blotted with anti-actin antibody (Sigma, St. Louis, Mo.) to verify the equal loading of protein in each lane.

5-HTT = 5-HTT expression in pulmonary artery and lung of MCT-treated rats; format: in vivo; details: 21 days after MCT
Procedure: The experiments were performed in adult male Wistar rats (300 to 350 g) in accordance with institutional guidelines after approval by the ethical review committee. PAH development and pulmonary expression of 5-HTT were examined in rats after 60 mg/kg single injection (i.p.) of monocrotaline (MCT). To assess the potential preventive effect of KMUP-1 on MCT-induced PAH and associated proliferation, we assigned rats at random to 2 groups of 8 animals which received KMUP-1 at 5 mg/kg/day p.o or 1 mg/kg/day i.p. All treatments were given once a day for 3 weeks after a single MCT injection (60 mg/kg i.p.) (Abe et al., 2004). On day 21, rats were anesthetized and pulmonary artery blood pressure (MPAP) was recorded as previously described. Lung tissues were dissected for Western blotting and immunohistochemistry.
For 5-HTT immunostaining, the lung slides were dewaxed in 100% xylene, and the sections were then rehydrated by successive immersion first in decreasing ethanol concentrations (100%, 90%, 80%, 50% and 30%) and then in water. Endogenous peroxidase activity was blocked using H2O2 in methanol (0.3% vol/vol) for 10 min. After three PBS washes, sections were pre-incubated in PBS supplemented with 3% (wt/vol) BSA for 30 min, then incubated overnight at 4° C. with goat polyclonal anti-5-HTT antibody (Abcam Biotechnology, Cambridge, UK) diluted to 1:1000 in 1×PBS, 0.02% BSA. […]

PASMCs [1] = experiment: Cell migration (wound) assay of PASMCs; format: cell-based, Wistar rats; details: 10-100 μM; 5-HT 10 μM 24 h
Procedure: Migration of PASMCs was assessed using a wound assay model in which cells grown to confluence on 6 well dishes were scraped with the edge of a fine razor. The wound edge was viewed and photographed under a microscope (Nikon, Tokyo, Japan) before and after culture for 24 h in serum-free DMEM in the presence of 5HT (10 μM). The distance the cells migrated from the wound surface was then manually measured.

PCNA = experiment: PASMCs proliferation (PCNA) in MCT-treated lung tissues; format: in vivo, rats; details: day 21 after MCT injection
Procedure: We evaluated proliferating cell nuclear antigen (PCNA) to assess PASMCs proliferation in rats treated with MCT alone or with KMUP-1. Lung tissue sections were de-paraffinized in xylene and then treated with a graded series of alcohol washes, rehydrated in PBS (pH 7.5), and incubated with target retrieval solution (DAKO Co, Tokyo, Japan) in a water bath at 90° C. for 20 min. Endogenous peroxidase activity was blocked with H2O2 in PBS (3%, vol/vol) for 5 min. Slides were then washed in PBS, incubated for 30 min in a protein blocking solution, and incubated for 30 min with anti-PCNA mouse monoclonal antibody (PC-10, 1:200, Dako). Antibodies were washed off, and the slides were processed with an […] LSAB and system horseradish peroxidase detection kit (DAKO Co, Tokyo, Japan). Brown color was generated with a DAB substrate, and nuclei were counter-stained with hematoxylin.

PASMCs [2] = experiment: Microculture tetrazolium test (MTT), PASMCs proliferation; format: cell-based, Wistar rats; details: 1-100 μM; 5-HT 10 μM 24 h
Procedure: At the end of this period, MTT (2 g/L) was added to each well, and incubation proceeded at 37° C. for 4 h. Thereafter, the medium was removed and the cells were solubilized in 150 μL DMSO.

eNOS = experiment: Ovalbumine model, eNOS immunostaining in lung sections; design: species or system BALB/c mice; details: mouse, in vivo
Procedure: as §1
Immunohistochemical analysis of eNOS enhancement by KMUP-1 was performed as follows. The lungs were perfused with saline followed by 10% formalin and then placed in 10% formalin for paraffin embedding. The lung tissues were cut into […] sections onto slides, dewaxed in 100% xylene, and then re-hydrated in graded alcohol solutions. Throughout the procedures, slides were washed as appropriate in PBS. Antigen retrieval was performed by microwave treatment for eNOS immunostaining. Sections were treated with 3% H2O2 (10 min) to inhibit endogenous peroxidases and incubated with normal serum (60 min) to reduce nonspecific binding of secondary antibodies. Sections were then incubated at 4° C. overnight with eNOS antibodies. […]

Cn1c(=O)c2c(ncn2CCN2CCN(c3ccccc3Cl)CC2)n(C)c1=O [KMUP-1, 7-[2-[4-(2-chlorophenyl)piperazinyl]ethyl]-1,3-dimethylxanthine]
IL-5 levels in the plasma (IL-5): inhibited | MMP-9 expression in mice lung tissues (MMP-9): decreased | 5-HTT protein expression in lung tissue (Western blotting) (5-HTT): significantly reduced | 5-HTT expression in pulmonary artery (immunochemistry) (5-HTT; 5 mg/kg p.o. and 1 mg/kg i.p.): significantly decreased | 5-HT-induced PASMCs migration (PASMCs [1]): concentration-dependently suppressed | number of PCNA-positive cells in pulmonary artery walls (PCNA): markedly lower | PASMCs proliferation (MTT assay) (PASMCs [2]): dose-dependently inhibited | ovalbumine-decreased vascular eNOS-immunostaining in lung sections (eNOS): prevented this decrease
